From ChEMBL document CHEMBL3045772, “Amide derivatives of [6-acyl-2-benzothiazolinon-3-yl] acetic acids as potential analgesic and anti-inflammatory compounds” (Med Chem Res, 2010)

Legend:
Format in all cases: functional
Mus musculus [1] = test: Anti-inflammatory activity in Mus musculus Swiss albino (mouse) assessed as inhibition of carrageenan-induced edema at 10 mg/kg, po pretreated 60 min before carrageenan-challenge measured after 270 min
Mus musculus [2] = test: Anti-inflammatory activity in Mus musculus Swiss albino (mouse) assessed as inhibition of carrageenan-induced edema at 10 mg/kg, po pretreated 60 min before carrageenan-challenge measured after 360 min
Mus musculus [3] = test: Anti-inflammatory activity in Mus musculus Swiss albino (mouse) assessed as inhibition of carrageenan-induced edema at 10 mg/kg, po pretreated 60 min before carrageenan-challenge measured after 90 min
Mus musculus [4] = test: Anti-inflammatory activity in Mus musculus Swiss albino (mouse) assessed as inhibition of carrageenan-induced edema at 10 mg/kg, po pretreated 60 min before carrageenan-challenge measured after 180 min

SMILES: COc1ccc2c(c1)c(CC(=O)O)c(C)n2C(=O)c1ccc(Cl)cc1 [INDOMETHACIN]
- inhibition in vivo at 10 mg/kg (Mus musculus [1]): 36.2%
- inhibition in vivo at 10 mg/kg (Mus musculus [2]): 40.1%
- inhibition in vivo at 10 mg/kg (Mus musculus [3]): 25.4%
- inhibition in vivo at 10 mg/kg (Mus musculus [4]): 30.7%
